Data published in patent publication US9187496B2 (priority 2009, dated 2015).
Read-outs that look alike come from different tables or passages of the source.

Key:
[1] = tested on: Huh-7 cells containing HCV Con1 subgenomic replicon (GS4.1 cells); experiment: HCV replicon assay (NS5A ELISA); type: cell-based; settings: Hepatitis C virus, Huh-7; GS4.1 cells, 72 hrs, NS5A ELISA; read-out: EC50
Description: General Procedure: Huh-7 cells containing HCV Con1 subgenomic replicon (GS4.1 cells) were grown in Dulbecco's Modified Eagle Medium (DMEM) supplemented with 10% fetal bovine serum (FBS), 2 mM L-glutamine, 110 mg/L sodium pyruvate, 1× non-essential amino acids, 100 U/mL penicillin-streptomycin, and 0.5 mg/mL G418 (Invitrogen). For dose-response testing, the cells were seeded in 96-well plates at 7.5×10^3 cells/well in a volume of 50 μL, and incubated at 37° C./5% CO2. Three hours after plating, 50 μL of ten 2-fold serial dilutions of compounds (highest concentration, 75 μM) were added, and cell cultures were incubated at 37° C./5% CO2 in the presence of 0.5% DMSO. Alternatively, compounds were tested at a single concentration of 15 μM. In all cases, Huh-7 cells lacking the HCV replicon served as negative control. The cells were incubated in the presence of compounds for 72 hrs after which they were monitored for expression of the NS5A protein by enzyme-linked immunosorbent assay (ELISA). For this, the plates were then fixed for 1 min with acetone/methanol (1:1, v/v), washed twice with phosphate-buffered saline (PBS), 0.1% Tween 20, blocked for 1 hr at room temperature with TNE buffer containing 10% FBS and then incubated for 2 hr at 37° C. with the anti-NS5A mouse monoclonal antibody A-236 (ViroGen) diluted in the same buffer. After washing three times with PBS, 0.1% Tween 20, the cells were incubated 1 hr at 37° C. with anti-mouse immunoglobulin G-peroxidase conjugate in TNE, 10% FBS. After washing as described above, the reaction was developed with O-phenylenediamine (Zymed). The reaction was stopped after 30 min with 2 N H2SO4, and absorbance was read at 492 nm using Sunrise Tecan spectrophotometer. EC50 values were determined from the % inhibition versus concentration data using a sigmoidal non-linear regression analysis based on four parameters with Tecan Magellan software.

[2] = Cytotoxicity evaluation in GS4.1 cells (Cell Titer 96 AQueous One); type: cell-based, human; settings: human, cellular viability
Description: (§1) For cytotoxicity evaluation, GS4.1 cells were treated with compounds as described above and cellular viability was monitored using the Cell Titer 96 AQueous One Solution Cell Proliferation Assay (Promega). CC50 values were determined from the % cytotoxicity versus concentration data with Tecan Magellan software as described above.

[3] = Cytotoxicity evaluation in luciferase replicon cells (Cell Titer 96 AQueous One); type: cell-based, human; settings: human; Table 1B, cellular viability
Description: For cytotoxicity evaluation, H1a-luc or Zluc cells were treated with compounds as described above and cellular viability was monitored using the Cell Titer 96 AQueous One Solution Cell Proliferation Assay (Promega). Plates were then read at 490 nm in a Victor^3V 1420 multilabel counter (Perkin Elmer) and CC50 concentrations were determined using Microsoft Excel and XLfit 4.1 software.

[4] = tested on: HCV genotype 4a-specific NS5A gene within the 1b-replicon; experiment: Luciferase replicon assay, NS5A-intergenotypic stable cell line genotype 4a; type: cell-based; settings: Hepatitis C virus, read-out: EC50 4a
Source text: (§2) The nucleotide sequences of the NS5A region of genotype 2a (GenBank Accession #AB047639), genotype 3a (GenBank Accession #D17763), and genotype 4a (GenBank Accession#DQ418788) were synthesized by an outside vendor. The NS5A region of each of these genotypes included the first 11 amino acids of the protease recognition sequence of genotype 1b, as well as the last 10 amino acids of genotype 1b. The NS5A gene cassettes were excised with site specific restriction endonucleases and ligated into a ZS11-luciferase genotype 1b backbone (backbone contains the genotype 1b NS3 protease, NS4a, NS4b, and NS5b coding regions) with similarly cut restriction enzyme sites. Thus, the newly constructed plasmid contains a genotype 2a-, 3a- or 4a-specific NS5A gene within the 1b-replicon.
(§3) These new intergenotypic plasmids were used to establish stable cell lines. RNA was generated from the NS5A intergenotypic plasmids and used in conjunction with a lipofectin reagent to transfect a cured Huh7 cell line. Transfected cells were selected for with G418. After selection has occurred the stable cell lines were propagated, tested for luciferase activity, and RT-PCR with genotype specific primers (either 1a, 2a, 3a, or 4a). Stable cell lines containing the intergenotypic replicon were then fully sequenced and analysed for proper expression of NS3, NS5A and NS5B proteins.
(§4) Drug titration analysis was performed using the luciferase replicon assay described herein.
(§5) The HCV luciferase replicon assay measures the ability of a test compound to inhibit HCV replication in cell culture after 3 days of treatment in a human hepatoma cell line (Huh-7) bearing a HCV replicon containing a luciferase-neomycin phosphotransferase fusion gene. The inhibition of HCV replication was measured by quantification of luciferase protein expression. Briefly, Huh-7 cells containing either the HCV genotype 1a H77 strain or genotype 1b Conl strain subgenomic luciferase replicon (H1a-luc or Zluc, respectively) were grown in DMEM containing glucose, L-glutamine and sodium pyruvate, 10% fetal bovine serum (FBS), 100 IU/mL penicillin, 100 μg/mL streptomycin, 2 mM GlutaMAX, non-essential amino acids and 0.25 (H1a-luc) or 0.5 (Zluc) mg/mL G418. GlutaMAX was obtained from Invitrogen, Corp.; all other media reagents were obtained from Mediatech, Inc. For dose-response testing, the cells were seeded in 96-well plates at 1×10^4 (H1a-luc) or 7.5×10^3 (Zluc) cells/well in a volume of 50 μL, and incubated at 37° C./5% CO2. Three hours after plating, 50 μL of ten 5-fold serial dilutions of compound were added, and cell cultures were incubated at 37° C./5% CO2 for 72 hours. In all cases, Huh-7 cells lacking the HCV replicon served as negative control. To assess luciferase expression, the media/compound was removed from the plates and ONE-glo Luciferase assay reagent (Promega) was added to each well. The assay plates were shaken for 3 minutes at room temperature and luciferase activity for each well was measured with a 1 sec read time on the Victor^3V multilabel counter using a 700 nm cut-off filter (Perkin Elmer). EC50 values were calculated from dose response curves from the resulting best-fit equations determined by Microsoft Excel and XLfit 4.1 software.

[5] = tested on: HCV genotype 3a-specific NS5A gene within the 1b-replicon; experiment: Luciferase replicon assay, NS5A-intergenotypic stable cell line genotype 3a; type: cell-based; settings: Hepatitis C virus, read-out: EC50 3a
Source text: as §2, §3, §4, §5

[6] = tested on: HCV genotype 1a H77 strain (H1a-luc replicon / 1a-H77NS5a intergenotypic replicon); experiment: Luciferase replicon assay, genotype 1a; type: cell-based
Source text: To generate the 1a-H77NS5a intergenotypic plasmid, dual cut sites were inserted into the ZS11-luciferase genotype 1b backbone that would bracket the NS5a region almost in its entirety. Using PCR and 1a-H77 specific primers also containing the corresponding restriction enzyme sites, the NS5a gene was amplified from the 1a-H77 replicon. The ZS11-luciferase genotype 1b backbone and the genotype 1a NS5a PCR products were restriction enzyme digested and then ligated using standard molecular cloning techniques. The newly constructed plasmid contains the genotype 1a-specific NS5a gene where as the backbone remains 1b as described herein.
as §3, §4, §5

[7] = tested on: HCV genotype 1b Conl strain subgenomic luciferase replicon (Zluc); experiment: Luciferase replicon assay, genotype 1b; type: cell-based; settings: Hepatitis C virus, 72 h, read-out: EC50 1b
Description: as §5

[8] = tested on: HCV genotype 2a-specific NS5A gene within the 1b-replicon; experiment: Luciferase replicon assay, NS5A-intergenotypic stable cell line genotype 2a; type: cell-based; settings: Hepatitis C virus, read-out: EC50 2a
Source text: as §2, §3, §4, §5

GS4.1 cells = experiment: Cytotoxicity evaluation in GS4.1 cells (Cell Titer 96 AQueous One); type: cell-based, human; settings: cellular viability
Description: as §1

[9] = Hepatitis C virus, read-out: EC50 1a, genotype 1a

## COC(=O)N[C@H](C(=O)N1CCC[C@H]1c1nc(-c2ccc(-c3csc4c(Br)csc34)cc2)c[nH]1)C(C)C [Compound A155, [(S)-1-((S)-2-{4-[4-(6-bromo-thieno[3,2-b]thiophen-3-yl)-phenyl]-1H-imidazol-2-yl}-pyrrolidine-1-carbonyl)-2-methyl-propyl]-carbamic acid methyl ester]
[1]
  EC50: 10 to 100 nM
[2]
  CC50: 10000 to 75000 nM

## COC(=O)N[C@H](C(=O)N1CCC[C@H]1c1nc2ccc(-c3csc4c(-c5ccc6nc([C@@H]7CCCN7C(=O)[C@H](NC(=O)OC)c7ccccc7)[nH]c6c5)csc34)cc2[nH]1)C(C)C [Compound A208]
[3]
  CC50 at 72 h: > 75000 nM
[4]
  EC50: < 0.1 nM
[5]
  EC50: < 0.1 nM
[6]; [9]
  EC50: < 0.1 nM
[7]
  EC50: < 0.1 nM
[8]
  EC50: < 0.1 nM

## COC(=O)N[C@H](C(=O)N1CCC[C@H]1c1ncc(-c2ccc(-c3csc4c(-c5cnc([C@@H]6CCCN6C(=O)[C@@H](NC(=O)OC)C(C)C)[nH]5)csc34)cc2)[nH]1)C(C)C [Compound A15, [(S)-1-((S)-2-{4-[4-(6-{2-[(S)-1-((S)-2-methoxycarbonylamino-3-methyl-butyryl)-pyrrolidin-2-yl]-3H-imidazol-4-yl}-thieno[3,2-b]thiophen-3-yl)-phenyl]-1H-imidazol-2-yl}-pyrrolidine-1-carbonyl)-2-methyl-propyl]-carbamic acid methyl ester]
[1]
  EC50: < 1 nM
[3]
  CC50 at 72 h: 10000 to 75000 nM
[4]
  EC50: < 0.1 nM
[5]
  EC50: 0.1 to 1 nM
[2]
  CC50: 10000 to 75000 nM
[6]; [9]
  EC50: < 0.1 nM
[7]
  EC50: < 0.1 nM
[8]
  EC50: < 0.1 nM

## COC(=O)N[C@H](C(=O)N1CCCC1c1ncc(-c2csc3c(-c4ccc(-c5cnc(C6CCCN6C(=O)[C@H](NC(=O)OC)c6ccccc6)[nH]5)cc4)csc23)[nH]1)C(C)C (some centres unmarked) [Compound A114]
[4]
  EC50: < 0.1 nM
[5]
  EC50: < 0.1 nM
[6]; [9]
  EC50: 0.1 to 1 nM
[6]; read-out: EC50 1a, genotype 1a
  EC50: < 0.1 nM
[7]
  EC50: < 0.1 nM
[8]
  EC50: < 0.1 nM

## COC(=O)NC(C(=O)N1CCCC1c1ncc(-c2cc3sc(-c4ccc5[nH]c(C6CCCN6C(=O)C(NC(=O)OC)C(C)C)nc5c4)cc3s2)[nH]1)C(C)C (stereo in doubt) [Compound A176, ((S)-1-{(S)-2-[5-(5-{(S)-2-[1-((S)-2-methoxycarbonylamino-3-methyl-butyryl)-pyrrolidin-2-yl]-3H-benzoimidazol-5-yl}-thieno[3,2-b]thiophen-2-yl)-1H-imidazol-2-yl]-pyrrolidine-1-carbonyl}-2-methyl-propyl)-carbamic acid methyl ester]
[3]
  CC50 at 72 h: 10000 to 75000 nM
[4]
  EC50: 0.1 to 1 nM
[5]
  EC50: 0.1 to 1 nM
[6]; [9]
  EC50: 0.1 to 1 nM
[7]
  EC50: < 0.1 nM
[8]
  EC50: 0.1 to 1 nM

## COC(=O)N[C@H](C(=O)N1CCC[C@H]1c1ncc(-c2ccc(-c3cc4sc(-c5ccc6[nH]c([C@@H]7CCCN7C(=O)[C@H](NC(=O)OC)c7ccccc7)nc6c5)cc4s3)cc2)[nH]1)C(C)C [Compound A194, [(S)-1-((S)-2-{4-[4-(5-{(S)-2-[1-((R)-2-methoxycarbonylamino-2-phenyl-acetyl)-pyrrolidin-2-yl]-3H-benzoimidazol-5-yl}-thieno[3,2-b]thiophen-2-yl)-phenyl]-1H-imidazol-2-yl}-pyrrolidine-1-carbonyl)-2-methyl-propyl]-carbamic acid methyl ester]
[3]
  CC50 at 72 h: > 75000 nM
[4]
  EC50: < 0.1 nM
[5]
  EC50: 0.1 to 1 nM
[6]; [9]
  EC50: 0.1 to 1 nM
[7]
  EC50: < 0.1 nM
[8]
  EC50: 1 to 10 nM

## COC(=O)N[C@H](C(=O)N1CCC[C@H]1c1ncc(-c2ccc(-c3cc4sc(-c5cnc([C@@H]6CCCN6C(=O)[C@@H](NC(=O)OC)C(C)C)[nH]5)cc4s3)cc2)[nH]1)C(C)C [Compound A126, [(S)-1-((S)-2-{5-[4-(5-{2-[(S)-1-((S)-2-Methoxycarbonylamino-3-methyl-butyryl)-pyrrolidin-2-yl]-3H-imidazol-4-yl}-thieno[3,2-b]thiophen-2-yl)-phenyl]-1H-imidazol-2-yl}-pyrrolidine-1-carbonyl)-2-methyl-propyl]-carbamic acid methyl ester]
[1]
  EC50: < 1 nM
[3]
  CC50 at 72 h: > 75000 nM
[4]
  EC50: < 0.1 nM
[5]
  EC50: 1 to 10 nM
GS4.1 cells
  CC50: > 75000 nM
[7]
  EC50: < 0.1 nM
[8]
  EC50: 0.1 to 1 nM

## COC(=O)N[C@H](C(=O)N1CCC[C@H]1c1ncc(-c2ccc(-c3csc4c(-c5cnc([C@@H]6CCCN6C(=O)[C@H](NC(=O)OC(C)(C)C)c6ccccc6)[nH]5)csc34)cc2)[nH]1)C(C)C [Compound A111, [(S)-1-((S)-2-{4-[4-(6-{(S)-2-[1-((R)-2-tert-butoxycarbonylamino-2-phenyl-acetyl)-pyrrolidin-2-yl]-3H-imidazol-4-yl}-thieno[3,2-b]thiophen-3-yl)-phenyl]-1H-imidazol-2-yl}-pyrrolidine-1-carbonyl)-2-methyl-propyl]-carbamic acid methyl ester]
[1]
  EC50: < 1 nM
[3]
  CC50 at 72 h: > 75000 nM
[4]
  EC50: < 0.1 nM
[5]
  EC50: < 0.1 nM
GS4.1 cells
  CC50: > 75000 nM
[7]
  EC50: < 0.1 nM
[8]
  EC50: < 0.1 nM

## COC(=O)N[C@@H](C(=O)N1CCCC1c1ncc(-c2cn3cc(-c4ccc(-c5cnc([C@@H]6CCCN6C(=O)[C@H](NC(=O)OC)c6ccccc6)[nH]5)cc4)nc3s2)[nH]1)c1ccccc1 (some centres unmarked) [A60]
[1]
  EC50: < 1 nM
[2]
  CC50: > 75000 nM
